In brackets after ≈: the same amount, converted by molar mass.
How the values were obtained:
A549 = assay: Growth inhibition of human A549/ATCC cells assessed as cell growth at 10 uM incubated for 48 hrs by sulforhodamine B assay relative to control; assay type: functional; settings: A549, 48 h, read-out: Activity
SF-539 = assay: Growth inhibition of human SF539 cells assessed as cell growth at 10 uM incubated for 48 hrs by sulforhodamine B assay relative to control; assay type: functional; settings: SF-539, 48 h, read-out: Activity
SNB-19 = assay: Growth inhibition of human SNB19 cells assessed as cell growth at 10 uM incubated for 48 hrs by sulforhodamine B assay relative to control; assay type: functional; settings: SNB-19, 48 h, read-out: Activity
Malme-3M = assay: Growth inhibition of human MALME-3M cells assessed as cell growth at 10 uM incubated for 48 hrs by sulforhodamine B assay relative to control; assay type: functional; settings: read-out: Activity
M14 = assay: Growth inhibition of human M14 cells assessed as cell growth at 10 uM incubated for 48 hrs by sulforhodamine B assay relative to control; assay type: functional; settings: M14, 48 h, read-out: Activity
MDA-MB-435 = assay: Growth inhibition of human MDA-MB-435 cells assessed as cell growth at 10 uM incubated for 48 hrs by sulforhodamine B assay relative to control; assay type: functional; settings: MDA-MB-435, 48 h, read-out: Activity
SK-MEL-28 = assay: Growth inhibition of human SK-MEL-28 cells assessed as cell growth at 10 uM incubated for 48 hrs by sulforhodamine B assay relative to control; assay type: functional; settings: SK-MEL-28, 48 h, read-out: Activity
UACC-62 = assay: Growth inhibition of human UACC62 cells assessed as cell growth at 10 uM incubated for 48 hrs by sulforhodamine B assay relative to control; assay type: functional; settings: UACC-62, 48 h, read-out: Activity
OVCAR-3 = assay: Growth inhibition of human OVCAR3 cells assessed as cell growth at 10 uM incubated for 48 hrs by sulforhodamine B assay relative to control; assay type: functional; settings: OVCAR-3, 48 h, read-out: Activity
OVCAR-4 = assay: Growth inhibition of human OVCAR4 cells assessed as cell growth at 10 uM incubated for 48 hrs by sulforhodamine B assay relative to control; assay type: functional; settings: OVCAR-4, 48 h, read-out: Activity
SK-OV-3 = assay: Growth inhibition of human SKOV3 cells assessed as cell growth at 10 uM incubated for 48 hrs by sulforhodamine B assay relative to control; assay type: functional; settings: SK-OV-3, 48 h, read-out: Activity
TK-10 = assay: Growth inhibition of human TK10 cells assessed as cell growth at 10 uM incubated for 48 hrs by sulforhodamine B assay relative to control; assay type: functional; settings: TK-10, 48 h, read-out: Activity
UO-31 = assay: Growth inhibition of human UO31 cells assessed as cell growth at 10 uM incubated for 48 hrs by sulforhodamine B assay relative to control; assay type: functional; settings: UO-31, 48 h, read-out: Activity
PC-3 = assay: Growth inhibition of human PC3 cells assessed as cell growth at 10 uM incubated for 48 hrs by sulforhodamine B assay relative to control; assay type: functional; settings: PC-3, 48 h, read-out: Activity
MDA-MB-231 = assay: Growth inhibition of human MDA-MB-231 cells assessed as cell growth at 10 uM incubated for 48 hrs by sulforhodamine B assay relative to control; assay type: functional; settings: MDA-MB-231, 48 h, read-out: Activity
T47D = assay: Growth inhibition of human T47D cells assessed as cell growth at 10 uM incubated for 48 hrs by sulforhodamine B assay relative to control; assay type: functional; settings: read-out: Activity
MDA-MB-468 = assay: Growth inhibition of human MDA-MB-468 cells assessed as cell growth at 10 uM incubated for 48 hrs by sulforhodamine B assay relative to control; assay type: functional; settings: MDA-MB-468, 48 h, read-out: Activity
HL-60(TB) = assay: Growth inhibition of human HL-60(TB) cells assessed as cell growth at 10 uM incubated for 48 hrs by sulforhodamine B assay relative to control; assay type: functional; settings: HL-60, 48 h, read-out: Activity
K562 = assay: Growth inhibition of human K562 cells assessed as cell growth at 10 uM incubated for 48 hrs by sulforhodamine B assay relative to control; assay type: functional; settings: K562, 48 h, read-out: Activity
MOLT-4 = assay: Growth inhibition of human MOLT4 cells assessed as cell growth at 10 uM incubated for 48 hrs by sulforhodamine B assay relative to control; assay type: functional; settings: MOLT-4, 48 h, read-out: Activity
SR = assay: Growth inhibition of human SR cells assessed as cell growth at 10 uM incubated for 48 hrs by sulforhodamine B assay relative to control; assay type: functional; settings: read-out: Activity
EKVX = assay: Growth inhibition of human EKVX cells assessed as cell growth at 10 uM incubated for 48 hrs by sulforhodamine B assay relative to control; assay type: functional; settings: read-out: Activity
HCT-15 = assay: Growth inhibition of human HCT15 cells assessed as cell growth at 10 uM incubated for 48 hrs by sulforhodamine B assay relative to control; assay type: functional; settings: HCT-15, 48 h, read-out: Activity
SF-295 = assay: Growth inhibition of human SF295 cells assessed as cell growth at 10 uM incubated for 48 hrs by sulforhodamine B assay relative to control; assay type: functional; settings: SF-295, 48 h, read-out: Activity
MCF7 = assay: Growth inhibition of human MCF7 cells assessed as cell growth at 10 uM incubated for 48 hrs by sulforhodamine B assay relative to control; assay type: functional; settings: MCF7, 48 h, read-out: Activity
U-937 = assay: Cytotoxicity against human U937 cells after 72 hrs by MTT assay; assay type: functional; settings: U-937, 72 h, read-out: LC50 (the source's name)
Plasmodium falciparum = assay: Antimalarial activity against chloroquine-sensitive Plasmodium falciparum 3D7 incubated for 48 hrs by malstat reagent based LDH release assay; assay type: functional, organism-based; settings: 3D7, 48 h
Leishmania panamensis = assay: Antileishmanial activity against EpiR/GFP fused Leishmania panamensis MHOM/CO/87/UA140 intracellular amastigotes infected in human […] cells after 72 hrs by flow cytometric method; assay type: functional, organism-based; settings: MHOM/CO/87/UA140, 72 h
Trypanosoma cruzi = assay: Antitrypanosomal activity against Trypanosoma cruzi Tulahuen amastigote forms infected in human U937 cells after 72 hrs by beta-galactosidase reporter gene assay; assay type: functional, organism-based; settings: U-937, 72 h

Compound	growth at 10 µM (A549) [%]	growth at 10 µM (SF-539) [%]	growth at 10 µM (SNB-19) [%]	growth at 10 µM (Malme-3M) [%]	growth at 10 µM (M14) [%]	growth at 10 µM (MDA-MB-435) [%]	growth at 10 µM (SK-MEL-28) [%]	growth at 10 µM (UACC-62) [%]	growth at 10 µM (OVCAR-3) [%]	growth at 10 µM (OVCAR-4) [%]	growth at 10 µM (SK-OV-3) [%]	growth at 10 µM (TK-10) [%]	growth at 10 µM (UO-31) [%]	growth at 10 µM (PC-3) [%]	growth at 10 µM (MDA-MB-231) [%]	growth at 10 µM (T47D) [%]	growth at 10 µM (MDA-MB-468) [%]	growth at 10 µM (HL-60(TB)) [%]	growth at 10 µM (K562) [%]	growth at 10 µM (MOLT-4) [%]	also measured
CCCCOc1nc2ccc(OC)cc2cc1C1CNC(=O)c2ccccc2N1 (stereo not drawn)	86.4	95.3	105	123	99	104	102	76.2	101	99.3	89.3	97	78.1	86.6	83.6	94.1	96.8				
O=C1NCC(c2cc3ccc4ccccc4c3[nH]c2=O)Nc2ccccc21 (stereo not drawn)	82.4	99.8	89.2	96.9	102	106	104	95.2	107	106	99.9	107	105	88.8	65.3	85.7	116	86.7	97.3	90.4	growth at 10 µM (SR): 56.4%; growth at 10 µM (EKVX): 96.4%; growth at 10 µM (HCT-15): 102%; growth at 10 µM (SF-295): 100%; growth at 10 µM (MCF7): 33.4%; CC50 (U-937): 8.3 µg/mL (≈ 23.4 µM); EC50 (Plasmodium falciparum): > 20 µg/mL; EC50 (Leishmania panamensis): 4.98 µg/mL (≈ 14 µM)
O=C1CC(c2cc3ccc4ccccc4c3[nH]c2=O)Nc2ccccc21 (stereo not drawn)	92.4	82.2	92.5	84.7	96.4	109	106	101	115	87.8	98.8	116	95.4	102	69.3	93.1	91.2	100	87.2	89.5	growth at 10 µM (SR): 11.1%; growth at 10 µM (EKVX): 93.8%; growth at 10 µM (HCT-15): 96.5%; growth at 10 µM (SF-295): 105%; growth at 10 µM (MCF7): 76.2%
CCCCn1c(=O)c(C2CNC(=O)c3ccccc3N2)cc2ccc(Cl)cc21 (stereo not drawn)	92.6	82	94.7	103	92.6	103	108	80.1	112	97.8	89.8	126	75.3	93	81.1	93.6	99.8	107	87.9	107	growth at 10 µM (SR): 59.8%; growth at 10 µM (EKVX): 89.8%; growth at 10 µM (HCT-15): 98.5%; growth at 10 µM (SF-295): 104%; growth at 10 µM (MCF7): 89.1%
O=C1NCC(c2cc3ccccc3[nH]c2=O)Nc2ccccc21 (stereo not drawn)	92.4	96.5	102	96.8	101	107	103	98.3	111	104	89.9	87.8	76.8	93.2	97.9	91	97.5	95.7	90.2	111	growth at 10 µM (SR): 100%; growth at 10 µM (EKVX): 106%; growth at 10 µM (HCT-15): 106%; growth at 10 µM (SF-295): 106%; growth at 10 µM (MCF7): 103%; CC50 (U-937): 36.3 µg/mL (≈ 119 µM); EC50 (Plasmodium falciparum): 64.7 µg/mL (≈ 212 µM); EC50 (Trypanosoma cruzi): 48.8 µg/mL (≈ 160 µM); EC50 (Leishmania panamensis): 110 µg/mL (≈ 361 µM)
CCCCOc1nc2c(C)cccc2cc1C1CNC(=O)c2ccccc2N1 (stereo not drawn)	60	68.3	47	86.1	54.7	4.51	66.4	29.1	20	71.7	69.2	98.7	67.8	40.1	65.3	58.4	51.6	26.2	19	39	growth at 10 µM (SR): 18.1%; growth at 10 µM (EKVX): 61.9%; growth at 10 µM (HCT-15): 43.4%; growth at 10 µM (SF-295): 52.5%; growth at 10 µM (MCF7): 15.8%; CC50 (U-937): 1 µg/mL (≈ 2.66 µM); EC50 (Plasmodium falciparum): > 20 µg/mL; EC50 (Trypanosoma cruzi): 2.68 µg/mL (≈ 7.14 µM); EC50 (Leishmania panamensis): 3.35 µg/mL (≈ 8.92 µM)
O=C1CC(c2cc3ccccc3[nH]c2=O)Nc2ccccc21 (stereo not drawn)	95.5	99.4	99.4	106	101	108	110	96.3	113	109	99.4	98	95.2	104	83.9	94.3	96.5	98	102	102	growth at 10 µM (SR): 95.4%; growth at 10 µM (EKVX): 108%; growth at 10 µM (HCT-15): 97.8%; growth at 10 µM (SF-295): 98.4%; growth at 10 µM (MCF7): 102%
CCCCn1c(=O)c(C2CNC(=O)c3ccccc3N2)cc2ccccc21 (stereo not drawn)	97.1	89.9	91	107	107	105	102	88.4	99.8	103	97.2	109	93.1	106	77.5	93.7	107	96.7	99.3	46.4	growth at 10 µM (SR): 102%; growth at 10 µM (EKVX): 103%; growth at 10 µM (HCT-15): 101%; growth at 10 µM (SF-295): 96.8%; growth at 10 µM (MCF7): 99.6%

— ChEMBL document CHEMBL4138146, “A Schmidt rearrangement-mediated synthesis of novel tetrahydro-benzo[1,4]diazepin-5-ones as potential anticancer and antiprotozoal agents” (Eur J Med Chem, 2017)
